Data from patent US8802737B2, “Method for improving tetracycline-resistance of Acinetobacter baumannii” (priority 2011, dated 2014).
In brackets after ≈: the same amount, converted by molar mass.

What was measured:
Format in all cases: cell-based, Acinetobacter baumannii
A. baumannii strain AB1 = assay: MIC by broth micro-dilution, clinical strain AB1; conditions: for MIC: Acinetobacter baumannii, read-out: susceptibilities to antibiotics (MICs); for MIC, ginger compound only: strain AB1, 10^5 cfu/mL, no tetracycline
From the text: (§1) Precisely, five strains of clinical A. baumannii, named AB1, AB2, AB4, AB5, AB6, are isolated from patients in Kaohsiung Medical University Hospital, 1600-bed tertiary referral medical center in Taiwan, wherein each of strains is from different clones by genotyping and collected from different samples, for example, sputum, wound pus, blood, pleural fluid, and bronchial washing. All of the five strains of A. baumannii are stored in trypticase soy broth (Difco Laboratories, Detroit, Mich.) with 20% glycerol at −80° C. until the following use.
(§2) Some of the antibiotics including ampicillin, cefazolin and cefmetazole have no MIC breakpoints according to CLSI.
(§3) In the present embodiment, 10^5 cfu/mL of each strain of A. baumannii are prepared, and the medication test of the present invention is carried out by respectively providing the medication of the present invention and the ginger compound only to each strain of A. baumannii. In this way, the antimicrobial activities of the medication of the present invention and of the ginger compound only are monitored and recorded respectively.

A. baumannii strain AB2 = assay: MIC by broth micro-dilution, clinical strain AB2; conditions: for MIC: Acinetobacter baumannii, read-out: susceptibilities to antibiotics (MICs); for MIC, ginger compound only: strain AB2, 10^5 cfu/mL, no tetracycline
From the text: as §1, §2, §3

A. baumannii strain AB4 = assay: MIC by broth micro-dilution, clinical strain AB4; conditions: for MIC: Acinetobacter baumannii, read-out: susceptibilities to antibiotics (MICs); for MIC, ginger compound only: strain AB4, 10^5 cfu/mL, no tetracycline
From the text: as §1, §2, §3

A. baumannii strain AB5 = assay: MIC by broth micro-dilution, clinical strain AB5; conditions: for MIC: Acinetobacter baumannii, read-out: susceptibilities to antibiotics (MICs); for MIC, ginger compound only: strain AB5, 10^5 cfu/mL, no tetracycline
From the text: as §1, §2, §3

A. baumannii strain AB6 = assay: MIC by broth micro-dilution, clinical strain AB6; conditions: for MIC: Acinetobacter baumannii, read-out: susceptibilities to antibiotics (MICs); for MIC, ginger compound only: strain AB6, 10^5 cfu/mL, no tetracycline
From the text: as §1, §2, §3

**Q.** For `CC1(C)S[C@@H]2[C@H](NC(=O)[C@H](N)c3ccccc3)C(=O)N2[C@H]1C(=O)O` [Ampicillin], which MIC (A. baumannii strain AB1; strain AB1, LB broth) is on record?
**A.** ≥ 512 µg/mL

**Q.** And the MIC (A. baumannii strain AB2; strain AB2, LB broth)?
**A.** ≥ 512 µg/mL

**Q.** What about the MIC (A. baumannii strain AB4; strain AB4, LB broth) of the same compound?
**A.** ≥ 512 µg/mL

**Q.** And the MIC (A. baumannii strain AB5; strain AB5, LB broth)?
**A.** ≥ 512 µg/mL

**Q.** What about the MIC (A. baumannii strain AB6; strain AB6, LB broth) of the same compound?
**A.** ≥ 512 µg/mL

**Q.** Which results are given for `Cc1nnc(SCC2=C(C(=O)O)N3C(=O)[C@@H](NC(=O)Cn4cnnn4)[C@H]3SC2)s1` [Cefazolin]?
**A.** MIC (A. baumannii strain AB1; strain AB1, LB broth): ≥ 64 µg/mL; MIC (A. baumannii strain AB2; strain AB2, LB broth): ≥ 64 µg/mL; MIC (A. baumannii strain AB4; strain AB4, LB broth): ≥ 64 µg/mL; MIC (A. baumannii strain AB5; strain AB5, LB broth): ≥ 64 µg/mL; MIC (A. baumannii strain AB6; strain AB6, LB broth): ≥ 64 µg/mL

**Q.** How did the MIC (A. baumannii strain AB1; strain AB1, LB broth) turn out when `CO/N=C(\C(=O)N[C@@H]1C(=O)N2C(C(=O)[O-])=C(C[N+]3(C)CCCC3)CS[C@H]12)c1csc(N)n1` [Cefepime] was run?
**A.** ≥ 64 µg/mL

**Q.** What about the MIC (A. baumannii strain AB2; strain AB2, LB broth) of the same compound?
**A.** ≥ 64 µg/mL

**Q.** And the MIC (A. baumannii strain AB4; strain AB4, LB broth)?
**A.** ≥ 64 µg/mL

**Q.** What about the MIC (A. baumannii strain AB5; strain AB5, LB broth) of the same compound?
**A.** ≥ 64 µg/mL

**Q.** What about the MIC (A. baumannii strain AB6; strain AB6, LB broth) of the same compound?
**A.** ≥ 64 µg/mL

**Q.** Which results are given for `CO[C@@]1(NC(=O)CSCC#N)C(=O)N2C(C(=O)O)=C(CSc3nnnn3C)CS[C@@H]21` [Cefmetazole]?
**A.** MIC (A. baumannii strain AB1; strain AB1, LB broth): ≥ 64 µg/mL; MIC (A. baumannii strain AB2; strain AB2, LB broth): ≥ 64 µg/mL; MIC (A. baumannii strain AB4; strain AB4, LB broth): ≥ 64 µg/mL; MIC (A. baumannii strain AB5; strain AB5, LB broth): ≥ 64 µg/mL; MIC (A. baumannii strain AB6; strain AB6, LB broth): ≥ 64 µg/mL

**Q.** What does the source list for `CC(C)(O/N=C(\C(=O)N[C@@H]1C(=O)N2C(C(=O)[O-])=C(C[n+]3ccccc3)CS[C@H]12)c1csc(N)n1)C(=O)O` [Ceftazidime]?
**A.** MIC (A. baumannii strain AB1; strain AB1, LB broth): ≥ 64 µg/mL; MIC (A. baumannii strain AB2; strain AB2, LB broth): ≥ 64 µg/mL; MIC (A. baumannii strain AB4; strain AB4, LB broth): ≥ 64 µg/mL; MIC (A. baumannii strain AB5; strain AB5, LB broth): ≥ 64 µg/mL; MIC (A. baumannii strain AB6; strain AB6, LB broth): ≥ 64 µg/mL

**Q.** How did the MIC (A. baumannii strain AB1; strain AB1, LB broth) turn out when `CO/N=C(\C(=O)N[C@@H]1C(=O)N2C(C(=O)O)=C(CSc3nc(=O)c(=O)[nH]n3C)CS[C@H]12)c1csc(N)n1` [Ceftriaxone] was run?
**A.** ≥ 64 µg/mL

**Q.** What about the MIC (A. baumannii strain AB2; strain AB2, LB broth) of the same compound?
**A.** ≥ 64 µg/mL

**Q.** What about the MIC (A. baumannii strain AB4; strain AB4, LB broth) of the same compound?
**A.** ≥ 64 µg/mL

**Q.** What about the MIC (A. baumannii strain AB5; strain AB5, LB broth) of the same compound?
**A.** ≥ 64 µg/mL

**Q.** What about the MIC (A. baumannii strain AB6; strain AB6, LB broth) of the same compound?
**A.** ≥ 64 µg/mL

**Q.** For `C[C@@H](O)[C@H]1C(=O)N2C(C(=O)O)=C(S[C@@H]3CN[C@H](C(=O)N(C)C)C3)[C@H](C)[C@H]12` [Meropenem], which MIC (A. baumannii strain AB1; strain AB1, LB broth) is on record?
**A.** ≥ 16 µg/mL

**Q.** And the MIC (A. baumannii strain AB2; strain AB2, LB broth)?
**A.** ≥ 16 µg/mL

**Q.** And the MIC (A. baumannii strain AB4; strain AB4, LB broth)?
**A.** ≥ 16 µg/mL

**Q.** And the MIC (A. baumannii strain AB5; strain AB5, LB broth)?
**A.** ≥ 16 µg/mL

**Q.** And the MIC (A. baumannii strain AB6; strain AB6, LB broth)?
**A.** ≥ 16 µg/mL

**Q.** Which MIC (A. baumannii strain AB1; strain AB1, LB broth) does the source give for `CCN1CCN(C(=O)N[C@@H](C(=O)N[C@@H]2C(=O)N3[C@@H]2SC(C)(C)[C@@H]3C(=O)O)c2ccccc2)C(=O)C1=O` [Piperacillin] here?
**A.** ≥ 128 µg/mL

**Q.** And the MIC (A. baumannii strain AB2; strain AB2, LB broth)?
**A.** ≥ 128 µg/mL

**Q.** And the MIC (A. baumannii strain AB4; strain AB4, LB broth)?
**A.** ≥ 128 µg/mL

**Q.** And the MIC (A. baumannii strain AB5; strain AB5, LB broth)?
**A.** ≥ 128 µg/mL

**Q.** What about the MIC (A. baumannii strain AB6; strain AB6, LB broth) of the same compound?
**A.** ≥ 128 µg/mL

**Q.** What does the source list for `CN(C)[C@@H]1C(O)=C(C(N)=O)C(=O)[C@@]2(O)C(O)=C3C(=O)c4c(O)cccc4[C@@](C)(O)[C@H]3C[C@@H]12` [Tetracycline]?
**A.** MIC (A. baumannii strain AB1; strain AB1, LB broth): 32 µg/mL (≈ 72 µM); MIC (A. baumannii strain AB2; strain AB2, LB broth): ≥ 512 µg/mL; MIC (A. baumannii strain AB4; strain AB4, LB broth): ≥ 512 µg/mL; MIC (A. baumannii strain AB5; strain AB5, LB broth): ≥ 512 µg/mL; MIC (A. baumannii strain AB6; strain AB6, LB broth): ≥ 512 µg/mL

**Q.** For `CCCCCC(=O)CC(=O)/C=C/c1ccc(O)c(OC)c1` [[6]-dehydrogingerdione], which “MIC, ginger compound only” value (A. baumannii strain AB1) is on record?
**A.** 198.1 µM (≈ 57.5 µg/mL)

**Q.** And the “MIC, ginger compound only” value (A. baumannii strain AB2)?
**A.** 166.2 µM (≈ 48.3 µg/mL)

**Q.** What about the “MIC, ginger compound only” value (A. baumannii strain AB4) of the same compound?
**A.** 137.6 µM (≈ 40 µg/mL)

**Q.** And the “MIC, ginger compound only” value (A. baumannii strain AB5)?
**A.** 178.5 µM (≈ 51.8 µg/mL)

**Q.** What about the “MIC, ginger compound only” value (A. baumannii strain AB6) of the same compound?
**A.** 207.1 µM (≈ 60.1 µg/mL)

**Q.** Which results are given for `CCCCC[C@H](O)CC(=O)CCc1ccc(O)c(OC)c1` [[6]-gingerol]?
**A.** MIC, ginger compound only (A. baumannii strain AB1): 226.4 µM (≈ 66.7 µg/mL); MIC, ginger compound only (A. baumannii strain AB2): 226.8 µM (≈ 66.8 µg/mL); MIC, ginger compound only (A. baumannii strain AB4): 297.1 µM (≈ 87.5 µg/mL); MIC, ginger compound only (A. baumannii strain AB5): 277.3 µM (≈ 81.6 µg/mL); MIC, ginger compound only (A. baumannii strain AB6): 275.6 µM (≈ 81.1 µg/mL)

**Q.** For `CCCCC/C=C/C(=O)CCc1ccc(O)c(OC)c1` [[6]-shogaol], which “MIC, ginger compound only” value (A. baumannii strain AB1) is on record?
**A.** 208.1 µM (≈ 57.5 µg/mL)

**Q.** And the “MIC, ginger compound only” value (A. baumannii strain AB2)?
**A.** 274.0 µM (≈ 75.7 µg/mL)

**Q.** What about the “MIC, ginger compound only” value (A. baumannii strain AB4) of the same compound?
**A.** 279.7 µM (≈ 77.3 µg/mL)

**Q.** And the “MIC, ginger compound only” value (A. baumannii strain AB5)?
**A.** 261.3 µM (≈ 72.2 µg/mL)

**Q.** What about the “MIC, ginger compound only” value (A. baumannii strain AB6) of the same compound?
**A.** 347.2 µM (≈ 96 µg/mL)

**Q.** What does the source list for `CCCCCCCCC[C@H](O)CC(=O)CCc1ccc(O)c(OC)c1` [[10]-gingerol]?
**A.** MIC, ginger compound only (A. baumannii strain AB1): 144.6 µM (≈ 50.7 µg/mL); MIC, ginger compound only (A. baumannii strain AB2): 162.3 µM (≈ 56.9 µg/mL); MIC, ginger compound only (A. baumannii strain AB4): 196.0 µM (≈ 68.7 µg/mL); MIC, ginger compound only (A. baumannii strain AB5): 207.5 µM (≈ 72.7 µg/mL); MIC, ginger compound only (A. baumannii strain AB6): 198.1 µM (≈ 69.4 µg/mL)

**Q.** Which “susceptibilities to antibiotics (MICs)” value (A. baumannii strain AB1; strain AB1, LB broth) does the source give for Gentamicin here?
**A.** ≧16 μg/ml

**Q.** And the “susceptibilities to antibiotics (MICs)” value (A. baumannii strain AB2; strain AB2, LB broth)?
**A.** ≧16 μg/ml

**Q.** And the “susceptibilities to antibiotics (MICs)” value (A. baumannii strain AB4; strain AB4, LB broth)?
**A.** ≧16 μg/ml

**Q.** And the “susceptibilities to antibiotics (MICs)” value (A. baumannii strain AB5; strain AB5, LB broth)?
**A.** ≧16 μg/ml

**Q.** And the “susceptibilities to antibiotics (MICs)” value (A. baumannii strain AB6; strain AB6, LB broth)?
**A.** ≧16 μg/ml
